The target of the experiment is T1, FsqB (Aspergillus fumigatus, UniProt Q4WD43).
T1 sequence (Q4WD43 1-497): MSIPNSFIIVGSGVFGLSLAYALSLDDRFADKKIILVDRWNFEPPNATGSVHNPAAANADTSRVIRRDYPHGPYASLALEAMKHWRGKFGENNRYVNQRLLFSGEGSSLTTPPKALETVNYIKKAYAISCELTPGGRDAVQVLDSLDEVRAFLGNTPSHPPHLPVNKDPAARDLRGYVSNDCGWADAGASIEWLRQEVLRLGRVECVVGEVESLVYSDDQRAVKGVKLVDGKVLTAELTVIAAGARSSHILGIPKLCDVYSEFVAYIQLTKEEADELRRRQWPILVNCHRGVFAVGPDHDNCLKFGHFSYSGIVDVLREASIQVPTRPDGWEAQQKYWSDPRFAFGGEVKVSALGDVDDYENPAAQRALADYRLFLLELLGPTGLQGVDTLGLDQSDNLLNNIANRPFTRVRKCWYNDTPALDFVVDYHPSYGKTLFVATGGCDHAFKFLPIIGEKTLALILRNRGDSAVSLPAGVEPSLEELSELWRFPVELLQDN
Put plainly: tryptic digest UHPLC-MS/MS. The experiment is classed as binding. The note with it: covalent, bound to cysteine-414.

Structures are written as SMILES.

1 compound from article PMC5049701 (Nature chemical biology, 2016) can be followed below.

Consider `Cc1cc2nc3c(=O)[nH]c(=O)nc-3n(C[C@H](O)[C@H](O)[C@H](O)COP(=O)(O)OP(=O)(O)OC[C@H]3O[C@@H](n4cnc5c(N)ncnc54)[C@H](O)[C@@H]3O)c2cc1C` [FAD], for which the “tryptic digest UHPLC-MS/MS; flavin fluorescence” value is recorded as “presence of FAD, which was found to be covalently bound to cysteine-414”.
